This is an account of results in patent publication US8247431B2, “Heterocyclic hydrazide compound and pesticidal use of the same” (Sumitomo Chemical Company, Limited, priority 2007, dated 2012).

What all share (assay type): in vivo
The test system of assay [1] is diamondback moths (Plutella xylostella). As to the kind of experiment: Test Example 1: spray on cabbage, third-instar larvae of diamondback moths. To be noted: 20 ml/cup spray on cabbage, 10 third-instar larvae, counted after 5 days; for pest or weed control at 500 ppm: Plutella xylostella, 120 h, 500 ppm active ingredient, read-out: controlling value; for control value: 0.2 ppm active ingredient. How it is done:
Then, it will be shown by Test Examples that the present compound is effective in controlling harmful arthropods. In the Test Example, controlling values were calculated by the following equation: Controlling value(%)={1−(Cb×Tai)/(Cai×Tb)}×100 wherein Cb: the number of worms in a non-treated section before treatment Cai: the number of worms in a non-treated section on observation Tb: the number of worms in a treated-section before treatment Tai: the number of worms in a treated-section on observation. Preparations of the test compounds obtained in Formulation Example 5 were diluted with water so that the active ingredient concentration became 500 ppm, to prepare test spray solutions. At the same time, cabbage was planted in a polyethylene cup, and grown until the third true leaf or the fourth true leaf was developed. The test spray solution as described above was sprayed in an amount of 20 ml/cup on the cabbage. After the spray solution on the cabbage was dried, 10 third-instar larvae of diamondback moths (Plutella xylostella) were put on the cabbage. After 5 days, the number of diamondback moths was counted, and the controlling value was calculated by the above equation. Furthermore, preparations of the test compound (7) and a comparative compound of the formula [drawing 523] obtained in a formulation according to Formulation Example 5 were diluted with water so that the active ingredient concentration became 0.2 ppm, to prepare test spray solution. At the same time, cabbage was planted in a polyethylene cup, and grown until the third true leaf or the fourth true leaf was developed. The test spray solution as described above was sprayed in an amount of 20 ml/cup on the cabbage. After the spray solution on the cabbage was dried, 10 third-instar larvae of diamondback moths (Plutella xylostella) were put on the cabbage. After 5 days, the number of diamondback moths was counted, and the controlling value was calculated by the above equation.

For assay [2], the system named is Adoxophyes orana fasciata. Nature of the assay: Test Example 4: spray on apple seedling, first-instar larvae of Adoxophyes orana fasciata. To be noted: 168 h, 500 ppm active ingredient, 20 ml spray on apple seedling, about 30 first-instar larvae, counted seven days after spraying, read-out: controlling value. As to the method: Then, it will be shown by Test Examples that the present compound is effective in controlling harmful arthropods. In the Test Example, controlling values were calculated by the following equation: Controlling value(%)={1−(Cb×Tai)/(Cai×Tb)}×100 wherein Cb: the number of worms in a non-treated section before treatment Cai: the number of worms in a non-treated section on observation Tb: the number of worms in a treated-section before treatment Tai: the number of worms in a treated-section on observation. Preparations of the test compounds obtained in Formulation Example 5 were diluted with water so that the active ingredient concentration became 500 ppm to prepare test spray solutions. At the same time, 20 ml of the test spray solution as described above was sprayed to an apple seedling (28 day-old seeding, tree height: about 15 cm) planted in a plastic cup. The apple seedling was air-dried to such an extent that the spray solution sprayed on the apple seedling was dried. About 30 first-instar larvae of Adoxophyes orana fasciata were released. Seven days after spraying, the number of worms surviving on the apple seedling was counted, and a controlling value was calculated by the above equation.

Assay [3] relates to cotton aphids (Aphis gossypii). As to the kind of experiment: Test Example 2: spray on cucumber infested with cotton aphids. To be noted: topical, 144 h, 500 ppm active ingredient, 20 ml/cup spray on cucumber, about 30 aphids, counted six days after spraying, read-out: controlling value. How it is done:
Then, it will be shown by Test Examples that the present compound is effective in controlling harmful arthropods. In the Test Example, controlling values were calculated by the following equation: Controlling value(%)={1−(Cb×Tai)/(Cai×Tb)}×100 wherein Cb: the number of worms in a non-treated section before treatment Cai: the number of worms in a non-treated section on observation Tb: the number of worms in a treated-section before treatment Tai: the number of worms in a treated-section on observation. Preparations of the test compounds obtained in Formulation Example 5 were diluted with water so that the active ingredient concentration became 500 ppm to prepare test spray solutions. At the same time, cucumber was planted in a polyethylene cup, and was grown until the first true leaf was developed. About 30 cotton aphids were put on the cucumber. One day after, the test spray solution as described above was sprayed in an amount of 20 ml/cup on the cucumber. Six days after spraying, the number of cotton aphids (Aphis gossypii) was counted, and a controlling value was calculated by the above equation.

Another assay relates to Spodoptera litura. Nature of the assay: Test Example 3: spray on cabbage, fourth-instar larvae of Spodoptera litura. To be noted: 120 h, 500 ppm active ingredient, 20 ml/cup spray on cabbage, 10 fourth-instar larvae, counted after 5 days, read-out: controlling value. As to the method: Then, it will be shown by Test Examples that the present compound is effective in controlling harmful arthropods. In the Test Example, controlling values were calculated by the following equation: Controlling value(%)={1−(Cb×Tai)/(Cai×Tb)}×100 wherein Cb: the number of worms in a non-treated section before treatment Cai: the number of worms in a non-treated section on observation Tb: the number of worms in a treated-section before treatment Tai: the number of worms in a treated-section on observation. Preparations of the test compounds obtained in Formulation Example 5 were diluted with water so that the active ingredient concentration became 500 ppm to prepare test spray solutions. At the same time, cabbage was planted in a polyethylene cup, and grown until the third true leaf or the fourth true leaf was developed. The test spray solution as described above was sprayed in an amount of 20 ml/cup on the cabbage. After the spray solution sprayed on the cabbage was dried, 10 fourth-instar larvae of Spodoptera litura were put on the cabbage. After 5 days, the number of Spodoptera litura surviving on the cabbage leaves was counted, and a controlling value was calculated by the above equation.

With `COC(=O)NNC(=O)c1cnn(C)c1NC(=O)c1cc(Br)nn1-c1ncccc1Cl` [Compound 19, N′-(5-{[5-bromo-2-(3-chloro-pyridin-2-yl)-2H-pyrazole-3-carbonyl]-amino}-1-methyl-1H-pyrazole-4-carbonyl)-hydrazinecarboxylic acid methyl ester], the pest or weed control at 500 ppm in assay [1], in assay [2] and in assay [3] was ≥ 90% each time.

Consider `COC(=O)NNC(=O)c1cc(Cl)nc(C)c1NC(=O)c1cc(Br)nn1-c1ncccc1Cl` [Compound 3, N′-(3-{[5-bromo-2-(3-chloro-pyridin-2-yl)-2H-pyrazole-3-carbonyl]-amino}-6-chloro-2-methyl-pyridine-4-carbonyl)-hydrazinecarboxylic acid methyl ester], for which the pest or weed control at 500 ppm in the assay on Spodoptera litura was ≥ 80%; in assay [1], ≥ 90%; in assay [2], ≥ 90%; in assay [3] it was ≥ 90%.

As for `COC(=O)NNC(=O)c1scc(C)c1NC(=O)c1cc(Br)nn1-c1ncccc1Cl` [Compound 18, N′-(3-{[5-bromo-2-(3-chloro-pyridin-2-yl)-2H-pyrazole-3-carbonyl]-amino}-4-methyl-thiophene-2-carbonyl)-hydrazinecarboxylic acid methyl ester], the pest or weed control at 500 ppm in assay [3] is ≥ 90%.

Consider `CCN(NC(=O)OC)C(=O)c1nc(Cl)cc(C)c1NC(=O)c1cc(Br)nn1-c1ncccc1Cl` [Compound 11, N′-(3-{[5-bromo-2-(3-chloro-pyridin-2-yl)-2H-pyrazole-3-carbonyl]-amino}-6-chloro-4-methyl-pyridine-2-carbonyl)-N′-ethyl-hydrazine carboxylic acid methyl ester], for which the pest or weed control at 500 ppm with Spodoptera litura is ≥ 80%; in assay [1], ≥ 90%; in assay [3] it was ≥ 90%.

Regarding `COC(=O)NNC(=O)c1nc(Cl)cc(C)c1NC(=O)c1cc(Br)nn1-c1ncccc1Cl` [Compound 7, N′-(3-{[5-bromo-2-(3-chloro-pyridin-2-yl)-2H-pyrazole-3-carbonyl]-amino}-6-chloro-4-methyl-pyridine-2-carbonyl)-hydrazinecarboxylic acid methyl ester], the pest or weed control at 500 ppm in the assay on Spodoptera litura was ≥ 80%; in assay [1], ≥ 90%; in assay [2], ≥ 90%; in assay [3] it was ≥ 90%. Moreover, the control value entry in assay [1] is given as “more than 80%”.

Take `COC(=O)NNC(=O)c1cc(Cl)nc(Br)c1NC(=O)c1cc(Br)nn1-c1ncccc1Cl` [Compound 4, N′-(2-bromo-3-{[5-bromo-2-(3-chloro-pyridin-2-yl)-2H-pyrazole-3-carbonyl]-amino}-6-chloro-pyridine-4-carbonyl)-hydrazinecarboxylic acid methyl ester]: the pest or weed control at 500 ppm is ≥ 80% with Spodoptera litura, ≥ 90% in assay [1], ≥ 90% in assay [2] and ≥ 90% in assay [3].

As to `CCN(NC(=O)c1nc(Cl)cc(C)c1NC(=O)c1cc(Br)nn1-c1ncccc1Cl)C(=O)OC` [Compound 10, N′-(3-{[5-bromo-2-(3-chloro-pyridin-2-yl)-2H-pyrazole-3-carbonyl]-amino}-6-chloro-4-methyl-pyridine-2-carbonyl)-N-ethyl-hydrazinecarboxylic acid methyl ester], the pest or weed control at 500 ppm in the assay with Spodoptera litura was ≥ 80%; in assay [1], ≥ 90%; in assay [3] it was ≥ 90%.

For `COC(=O)NNC(=O)c1cc(Cl)nc(Cl)c1NC(=O)c1cc(Br)nn1-c1ncccc1Cl` [Compound 1, N′-(3-{[5-bromo-2-(3-chloro-pyridin-2-yl)-2H-pyrazole-3-carbonyl]-amino}-2,6-dichloro-pyridine-4-carbonyl)-hydrazinecarboxylic acid methyl ester], the pest or weed control at 500 ppm with Spodoptera litura is ≥ 80%; in assay [1], ≥ 90%; in assay [2] it was ≥ 90%; in assay [3], ≥ 90%.

In the case of `COC(=O)NNC(=O)c1cc(Cl)nc(Cl)c1NC(=O)c1cc(C(F)(F)F)nn1-c1ncccc1Cl` [Compound 2, N′-(2,6-dichloro-3-{[2-(3-chloro-pyridin-2-yl)-5-trifluoromethyl-2H-pyrazole-3-carbonyl]-amino}-pyridine-4-carbonyl)-hydrazinecarboxylic acid methyl ester], the pest or weed control at 500 ppm in assay [1], in assay [2] and in assay [3] was ≥ 90% in each case.

Turning to `Cc1cc(Cl)nc(C(=O)NN(C)C)c1NC(=O)c1cc(Br)nn1-c1ncccc1Cl` [reference compound], the control value result in assay [1] was “less than 80%”.

Turning to `COC(=O)N(C)N(C)C(=O)c1nc(Cl)cc(C)c1NC(=O)c1cc(Br)nn1-c1ncccc1Cl` [Compound 9, N′-(3-{[5-bromo-2-(3-chloro-pyridin-2-yl)-2H-pyrazole-3-carbonyl]-amino}-6-chloro-4-methyl-pyridine-2-carbonyl)-N,N′-dimethyl-hydrazinecarboxylic acid methyl ester], the pest or weed control at 500 ppm is ≥ 80% with Spodoptera litura, ≥ 90% in assay [1] and ≥ 90% in assay [3].

As for `COC(=O)NNC(=O)c1cccnc1NC(=O)c1cc(C(F)(F)F)nn1-c1ncccc1Cl` [Compound 17, N′-(2-{[2-(3-chloro-pyridin-2-yl)-5-trifluoromethyl-2H-pyrazole-3-carbonyl]-amino}-pyridine-3-carbonyl)-hydrazinecarboxylic acid methyl ester], the pest or weed control at 500 ppm was ≥ 80% in the assay on Spodoptera litura and ≥ 90% in assay [1].

For the compound `CCN(NC(=O)OC)C(=O)c1nc(Br)cc(Br)c1NC(=O)c1cc(Br)nn1-c1ncccc1Cl` [Compound 16, N′-(4,6-dibromo-3-{[5-bromo-2-(3-chloro-pyridin-2-yl)-2H-pyrazole-3-carbonyl]-amino}-pyridine-2-carbonyl)-N′-ethyl-hydrazinecarboxylic acid methyl ester], the pest or weed control at 500 ppm with Spodoptera litura is ≥ 80%; in assay [1], ≥ 90%; in assay [3], ≥ 90%.
